{"source": "patent US4863916A", "about": "“Substituted 6-hydroxymethyl-carbapenem antibiotics” (Bayer Aktiengesellschaft, priority 1986, dated 1989)", "test_in_all_cases": "Antibacterial action, minimum inhibitory concentration (MIC), agar method on Iso-sensitest agar", "assay_type_in_all_cases": "cell-based", "key": {"Staph. 24455": {"test_system": "Staph. 24455", "text": "(§1) The agar solution method was used for determining the antibacterial action, an Iso-sensitest agar being used and the minimum inhibitory concentration (MIC) of the sample being expressed in μg/ml of the nutrient medium (Table)."}, "Staph. 133": {"test_system": "Staph. 133", "text": "as §1"}, "Staph. E 25185": {"test_system": "Staph. E 25185", "text": "as §1"}}}
{"smiles": "COC(=O)[C@@H](O)[C@H]1C(=O)N2C(C(=O)O)=C(Sc3ccncc3)C[C@H]12", "note": "[Example 14, Sodium (5R,6S)-6-[(1S)-1-hydroxy-1-methoxycarbonyl]methyl-7-oxo-3-(4-pyridinylthio)-1-azabicyclo[3.2.0]hept-2encarboxylate]", "values": [{"measurement": "MIC", "setting": "Staph. 24455", "result": 0.5, "unit": "µg/mL"}, {"measurement": "MIC", "setting": "Staph. 133", "result": 0.5, "unit": "µg/mL"}, {"measurement": "MIC", "setting": "Staph. E 25185", "result": 1, "unit": "µg/mL"}]}
